# In ChEMBL document CHEMBL1770109, “SAR studies of pyridazinone derivatives as novel glucan synthase inhibitors” (Bioorg Med Chem Lett, 2011):
# pIC50: −log10 of the molar value.
# How the values were obtained:
# [1] = molecular target: Beta-1,3-glucan synthase (Candida albicans, UniProt O13428); assay: Inhibition of Candida albicans BWP17 1,3-beta-glucan synthase
# [2] = test system: Candida albicans; assay: Antifungal activity against Candida albicans C693; format: functional; settings: for MIC: read-out: MIC100
# [3] = test system: Nakaseomyces glabratus; assay: Antifungal activity against Candida glabrata C624; format: functional; settings: read-out: MIC100
# [4] = AUC (0 to 6 hrs) in rat at 10 mg/kg, po; format: ADME, organism-based; parameters: time < 6 hr, dose 10 mg/kg, route oral; settings: plasma
# Sequence of Beta-1,3-glucan synthase (O13428 whole entry): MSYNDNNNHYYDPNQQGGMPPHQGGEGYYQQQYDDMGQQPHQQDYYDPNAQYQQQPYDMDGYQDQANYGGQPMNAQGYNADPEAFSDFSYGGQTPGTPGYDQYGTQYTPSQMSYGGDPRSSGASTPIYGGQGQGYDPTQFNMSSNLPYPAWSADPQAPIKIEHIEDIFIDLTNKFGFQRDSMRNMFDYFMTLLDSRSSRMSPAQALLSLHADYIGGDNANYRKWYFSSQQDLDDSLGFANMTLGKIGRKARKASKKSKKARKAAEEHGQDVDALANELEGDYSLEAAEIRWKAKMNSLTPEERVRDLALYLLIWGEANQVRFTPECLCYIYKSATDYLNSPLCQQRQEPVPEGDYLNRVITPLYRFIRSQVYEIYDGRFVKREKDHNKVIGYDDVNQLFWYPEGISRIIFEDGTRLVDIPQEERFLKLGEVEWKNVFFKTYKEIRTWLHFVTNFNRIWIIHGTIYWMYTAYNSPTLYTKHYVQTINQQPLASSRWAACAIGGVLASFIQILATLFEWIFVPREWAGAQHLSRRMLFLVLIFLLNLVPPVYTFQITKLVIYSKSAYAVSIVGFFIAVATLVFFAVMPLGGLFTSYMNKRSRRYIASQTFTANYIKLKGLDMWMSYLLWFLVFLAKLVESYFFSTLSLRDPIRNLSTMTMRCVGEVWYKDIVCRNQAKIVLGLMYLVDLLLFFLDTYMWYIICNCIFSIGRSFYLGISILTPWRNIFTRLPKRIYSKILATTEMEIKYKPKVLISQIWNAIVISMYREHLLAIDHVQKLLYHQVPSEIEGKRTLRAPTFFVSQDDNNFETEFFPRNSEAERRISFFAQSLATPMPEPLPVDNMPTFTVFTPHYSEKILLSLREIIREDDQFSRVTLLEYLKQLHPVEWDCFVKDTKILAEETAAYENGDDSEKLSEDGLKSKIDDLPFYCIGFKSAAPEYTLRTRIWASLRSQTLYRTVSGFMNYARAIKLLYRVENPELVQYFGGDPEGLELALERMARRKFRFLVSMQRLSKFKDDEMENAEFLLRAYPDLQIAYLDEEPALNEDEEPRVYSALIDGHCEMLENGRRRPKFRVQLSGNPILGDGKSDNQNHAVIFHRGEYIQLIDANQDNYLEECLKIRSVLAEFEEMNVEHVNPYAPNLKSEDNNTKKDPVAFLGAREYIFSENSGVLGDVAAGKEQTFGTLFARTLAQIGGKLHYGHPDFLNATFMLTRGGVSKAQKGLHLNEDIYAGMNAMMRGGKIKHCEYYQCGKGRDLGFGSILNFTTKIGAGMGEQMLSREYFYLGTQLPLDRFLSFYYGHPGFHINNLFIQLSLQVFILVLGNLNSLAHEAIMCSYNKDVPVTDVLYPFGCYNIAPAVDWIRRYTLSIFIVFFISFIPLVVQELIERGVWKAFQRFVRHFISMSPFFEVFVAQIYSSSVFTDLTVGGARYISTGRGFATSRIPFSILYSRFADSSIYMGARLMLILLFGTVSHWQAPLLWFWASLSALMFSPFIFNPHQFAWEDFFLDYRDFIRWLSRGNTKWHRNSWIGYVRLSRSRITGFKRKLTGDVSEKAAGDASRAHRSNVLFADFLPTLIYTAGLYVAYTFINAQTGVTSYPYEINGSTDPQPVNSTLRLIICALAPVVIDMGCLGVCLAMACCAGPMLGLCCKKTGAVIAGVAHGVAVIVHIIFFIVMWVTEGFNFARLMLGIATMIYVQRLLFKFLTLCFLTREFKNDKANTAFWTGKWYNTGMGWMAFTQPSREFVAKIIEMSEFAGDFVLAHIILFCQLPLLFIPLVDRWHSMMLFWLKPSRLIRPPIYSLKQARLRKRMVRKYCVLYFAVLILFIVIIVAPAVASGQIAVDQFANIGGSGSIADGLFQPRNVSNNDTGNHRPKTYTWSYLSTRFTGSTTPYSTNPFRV
SMILES,pIC50 [1],MIC [2],MIC [3],AUC(0-t) at 6 h [4],MIC50 [2]
CCOCCOc1nn(-c2ccccc2)c(=O)c(OCCOCC)c1N1CCN(S(=O)(=O)Cc2ccccc2)CC1,5.15,> 50 µg/mL,6.25 µg/mL,–,–
Nc1cccc(CS(=O)(=O)N2CCN(c3cnn(-c4cccc(Cl)c4)c(=O)c3OC3CCCC3)CC2)c1,–,3.13 µg/mL,0.39 µg/mL,50 ng·h/mL,–
O=C(O)CCS(=O)(=O)N1CCN(c2cnn(-c3cccc(Cl)c3)c(=O)c2OC2CCCC2)CC1,3.67,> 50 µg/mL,> 50 µg/mL,–,–
Nc1ccccc1CS(=O)(=O)N1CCN(c2cnn(-c3cccc(Cl)c3)c(=O)c2OC2CCCC2)CC1,–,0.35 µg/mL,0.03 µg/mL,290 ng·h/mL,–
O=c1c(OC2CCCC2)c(N2CCN(S(=O)(=O)Cc3ccsc3)CC2)cnn1-c1cccc(Cl)c1,6.39,2.1 µg/mL,0.02 µg/mL,–,–
O=C(O)c1ccc(CS(=O)(=O)N2CCN(c3cnn(-c4cccc(Cl)c4)c(=O)c3OC3CCCC3)CC2)cc1,–,> 50 µg/mL,25 µg/mL,130 ng·h/mL,–
O=c1c(OC2CCCC2)c(N2CCN(S(=O)(=O)Cc3ccncc3)CC2)cnn1-c1cccc(Cl)c1,–,0.2 µg/mL,< 0.02 µg/mL,60 ng·h/mL,–
O=c1c(OC2CCCC2)c(N2CCN(S(=O)(=O)C3Cc4ccccc4C3)CC2)cnn1-c1cccc(Cl)c1,6.28,1.56 µg/mL,0.1 µg/mL,–,–
N#Cc1ccc(CS(=O)(=O)N2CCN(c3cnn(-c4cccc(Cl)c4)c(=O)c3OC3CCCC3)CC2)cc1,–,0.13 µg/mL,0.02 µg/mL,–,–
CCOCCOc1c(N2CCN(S(=O)(=O)Cc3ccccc3)CC2)cnn(-c2ccccc2)c1=O,5.74,3.13 µg/mL,0.1 µg/mL,–,–
O=c1c(OC2CCCC2)c(N2CCN(S(=O)(=O)C3CCCC3)CC2)cnn1-c1cccc(Cl)c1,5.91,3.13 µg/mL,0.1 µg/mL,–,–
O=c1c(OC2CCCC2)c(N2CCN(S(=O)(=O)Cc3ccc(F)cc3)CC2)cnn1-c1cccc(Cl)c1,–,1.56 µg/mL,0.05 µg/mL,–,–
Nc1ccc(CS(=O)(=O)N2CCN(c3cnn(-c4cccc(Cl)c4)c(=O)c3OC3CCCC3)CC2)cc1,–,0.78 µg/mL,0.2 µg/mL,80 ng·h/mL,–
O=c1c(OC2CCCC2)c(N2CCN(S(=O)(=O)Cc3noc4ccccc34)CC2)cnn1-c1cccc(Cl)c1,6.85,0.78 µg/mL,0.05 µg/mL,–,–
O=c1c(OC2CCCC2)c(N2CCN(S(=O)(=O)c3ccc4ccccc4c3)CC2)cnn1-c1cccc(Cl)c1,6.88,33.4 µg/mL,1.04 µg/mL,–,–
O=c1c(OC2CCCC2)c(N2CCN(S(=O)(=O)Cc3ccc([N+](=O)[O-])cc3)CC2)cnn1-c1cccc(Cl)c1,–,0.78 µg/mL,0.05 µg/mL,–,–
O=c1c(OC2CCCC2)c(N2CCN(S(=O)(=O)Cc3cccc(C(F)(F)F)c3)CC2)cnn1-c1cccc(Cl)c1,–,> 50 µg/mL,0.78 µg/mL,–,–

SMILES,pIC50 [1],MIC [2],MIC [3],AUC(0-t) at 6 h [4],MIC50 [2]
CC(C)(C)S(=O)(=O)N1CCN(c2cnn(-c3cccc(Cl)c3)c(=O)c2OC2CCCC2)CC1,6.08,–,0.1 µg/mL,–,0.78 µg/mL
O=c1c(-c2ccc(F)cc2)c(N2CCN(S(=O)(=O)Cc3ccccc3)CC2)cnn1-c1ccccc1,–,6.25 µg/mL,0.05 µg/mL,–,–
CCOCCOc1cc(-c2ccccc2)ccc1N1CCN(S(=O)(=O)Cc2ccccc2)CC1,3.54,> 50 µg/mL,> 50 µg/mL,–,–
O=c1c(OC2CCCC2)c(N2CCN(S(=O)(=O)c3ccsc3)CC2)cnn1-c1cccc(Cl)c1,6.09,0.78 µg/mL,0.05 µg/mL,–,–
CCCCCCc1c(N2CCN(S(=O)(=O)Cc3ccccc3)CC2)ncn(-c2cccc(Cl)c2)c1=O,5.61,> 25 µg/mL,–,–,9 µg/mL
O=c1c(OC2CCCC2)c(N2CCN(S(=O)(=O)c3ccccc3)CC2)cnn1-c1cccc(Cl)c1,–,3.1 µg/mL,0.3 µg/mL,–,–
O=c1c(-c2ccc(F)cc2)c(N2CCN(S(=O)(=O)Cc3ccccc3)CC2)ccn1-c1ccccc1,5.32,> 50 µg/mL,0.78 µg/mL,–,–
Cn1ccc2ccc(S(=O)(=O)N3CCN(c4cnn(-c5cccc(Cl)c5)c(=O)c4OC4CCCC4)CC3)cc21,6.55,–,0.2 µg/mL,–,0.78 µg/mL
CCOC(=O)c1ccc(CS(=O)(=O)N2CCN(c3cnn(-c4cccc(Cl)c4)c(=O)c3OC3CCCC3)CC2)cc1,–,6.25 µg/mL,0.78 µg/mL,–,–
CCOCCOc1cc(-c2ccccc2)nnc1N1CCN(S(=O)(=O)Cc2ccccc2)CC1,4.12,> 25 µg/mL,> 25 µg/mL,–,–
O=c1c(OC2CCCC2)c(N2CCN(S(=O)(=O)Cc3ccccc3)CC2)cnn1-c1cccc(Cl)c1,6.42,0.39 µg/mL,0.02 µg/mL,–,–
O=c1c(OC2CCCC2)c(N2CCN(S(=O)(=O)CCc3ccccc3)CC2)cnn1-c1cccc(Cl)c1,5.83,5 µg/mL,0.08 µg/mL,–,–
Cc1ccc(CS(=O)(=O)N2CCN(c3cnn(-c4cccc(Cl)c4)c(=O)c3OC3CCCC3)CC2)cc1,–,0.31 µg/mL,0.08 µg/mL,–,–
O=c1c(OC2CCCC2)c(N2CCN(S(=O)(=O)Cc3cccc(B(O)O)c3)CC2)cnn1-c1cccc(Cl)c1,–,13.4 µg/mL,0.42 µg/mL,–,–
COCCS(=O)(=O)N1CCN(c2cnn(-c3cccc(Cl)c3)c(=O)c2OC2CCCC2)CC1,6.06,3.13 µg/mL,0.2 µg/mL,–,–
CCOCCOc1c(N2CCN(S(=O)(=O)Cc3ccccc3)CC2)c(C)nn(-c2ccccc2)c1=O,3.86,> 50 µg/mL,25 µg/mL,–,–
O=c1c(OC2CCCC2)c(N2CCN(S(=O)(=O)CCCc3ccccc3)CC2)cnn1-c1cccc(Cl)c1,4.38,> 50 µg/mL,3.13 µg/mL,–,–
